The numbers were not newly measured in patent publication US12364687B2 (BIOHAVEN PHARMACEUTICAL HOLDING COMPANY LTD., priority 2018, dated 2025), which cites them from elsewhere.

For the data set the following is noted: taken with meals.

With `Nc1nc2ccc(OC(F)(F)F)cc2s1` [riluzole, 6-(trifluoromethoxy)benzothiazol-2-amine], the “food effect on exposure” value is given as “reduced exposure when taken with meals”.
